The results in this text go back to ChEMBL document CHEMBL1155531, “Structure guided design of 5-arylindazole glucocorticoid receptor agonists and antagonists” (J Med Chem, 2010).

As a reminder, the EC50 is the concentration at which the effect is half-maximal. For orientation: bioavailability means the share of a dose that reaches the circulation, judged against a reference dose that is usually intravenous. Low values mean little systemic uptake, high ones much systemic uptake. What is called IC50 is the concentration that gives 50% inhibition. The term inhibition in vivo denotes the drop in the measured response relative to a control, in per cent. Low readings indicate a response near the control, high ones a response far below the control.

Some results are limits rather than exact numbers.

The target in series [1] is T1, Glucocorticoid receptor (Homo sapiens, UniProt P04150).
T1 sequence (P04150 whole entry): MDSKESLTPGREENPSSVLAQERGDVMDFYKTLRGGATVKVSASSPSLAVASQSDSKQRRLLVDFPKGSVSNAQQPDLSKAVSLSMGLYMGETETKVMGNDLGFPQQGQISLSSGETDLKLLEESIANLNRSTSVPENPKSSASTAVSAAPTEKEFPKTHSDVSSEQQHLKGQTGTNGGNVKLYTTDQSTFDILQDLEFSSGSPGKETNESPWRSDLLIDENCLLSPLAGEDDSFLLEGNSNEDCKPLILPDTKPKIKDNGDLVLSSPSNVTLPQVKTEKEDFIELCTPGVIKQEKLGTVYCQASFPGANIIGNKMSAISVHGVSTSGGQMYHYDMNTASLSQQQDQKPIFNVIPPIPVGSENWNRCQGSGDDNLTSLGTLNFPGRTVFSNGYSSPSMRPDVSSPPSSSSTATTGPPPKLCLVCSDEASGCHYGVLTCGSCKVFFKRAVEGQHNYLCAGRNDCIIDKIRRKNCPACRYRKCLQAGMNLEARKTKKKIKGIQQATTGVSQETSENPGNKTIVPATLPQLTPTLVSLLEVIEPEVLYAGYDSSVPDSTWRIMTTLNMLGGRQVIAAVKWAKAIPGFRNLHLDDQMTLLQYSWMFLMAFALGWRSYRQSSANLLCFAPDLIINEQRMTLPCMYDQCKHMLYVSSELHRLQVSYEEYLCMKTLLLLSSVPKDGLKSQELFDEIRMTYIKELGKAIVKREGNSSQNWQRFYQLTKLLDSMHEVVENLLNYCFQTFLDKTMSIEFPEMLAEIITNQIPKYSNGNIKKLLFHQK
Kind of series: Agonist activity at GR in human A549 cells transfected with luciferase gene linked to MMTV promoter assessed as luciferase transactivation activity after 24 hrs. Format: functional, cell-based.

The nature of series [2]: Toxicity in human skeletal muscle cells assessed as increase in glutamine synthase mRNA level after 18 hrs by PCR.
A short description of series [3]: Plasma concentration in mouse bearing mouse NIH-3T3 cells integrated with MMTV reporter gene at 100 mg/kg, po after 1 hr. The series is classed as ADME, organism-based, NIH3T3. Details: dose 100 mg/kg, route oral. (In general: In a reporter assay the amount or activity of a reporter protein is the signal.)
Series [4] is described as follows: Oral bioavailability in CD rat at 1 mg/kg. Format: ADME, organism-based. The settings on record: in vivo.
The nature of series [5]: Oral bioavailability in DBA1 mouse at 1 mg/kg. Conditions: in vivo. Format: ADME, organism-based.
For series [6], the target named is T1, Glucocorticoid receptor. Kind of series: Activity at GR in human A549 cells by NF-kappaB transrepression assay. The series is classed as cell-based.
A short description of series [7]: Antiinflammatory activity in human primary synovial fibroblasts assessed as inhibition of IL1-induced MMP1 release after 18 hrs by MSD technology. The series is classed as functional.
The subject of another series is Mus musculus. Kind of series: Inhibition of IL1-induced circulating IL6 release in mouse at 1 mg/kg, po. Format: functional.
The nature of series [8]: Elimination half life in DBA1 mouse at 1 mg/kg, po and 1 mg/kg, iv. The series is classed as ADME, organism-based. Conditions: in vivo, read-out: beta t1/2 (converted).
The nature of series [9]: Elimination half life in CD rat at 1 mg/kg, po and 1 mg/kg, iv. The settings on record: in vivo, read-out: beta t1/2 (converted). Format: ADME, organism-based.
The nature of series [10]: Plasma clearance in DBA1 mouse at 1 mg/kg, po and 1 mg/kg, iv. The series is classed as ADME, organism-based.
In a further series the target is T2, Androgen receptor (Homo sapiens, UniProt P10275).
T2 sequence (P10275 whole entry): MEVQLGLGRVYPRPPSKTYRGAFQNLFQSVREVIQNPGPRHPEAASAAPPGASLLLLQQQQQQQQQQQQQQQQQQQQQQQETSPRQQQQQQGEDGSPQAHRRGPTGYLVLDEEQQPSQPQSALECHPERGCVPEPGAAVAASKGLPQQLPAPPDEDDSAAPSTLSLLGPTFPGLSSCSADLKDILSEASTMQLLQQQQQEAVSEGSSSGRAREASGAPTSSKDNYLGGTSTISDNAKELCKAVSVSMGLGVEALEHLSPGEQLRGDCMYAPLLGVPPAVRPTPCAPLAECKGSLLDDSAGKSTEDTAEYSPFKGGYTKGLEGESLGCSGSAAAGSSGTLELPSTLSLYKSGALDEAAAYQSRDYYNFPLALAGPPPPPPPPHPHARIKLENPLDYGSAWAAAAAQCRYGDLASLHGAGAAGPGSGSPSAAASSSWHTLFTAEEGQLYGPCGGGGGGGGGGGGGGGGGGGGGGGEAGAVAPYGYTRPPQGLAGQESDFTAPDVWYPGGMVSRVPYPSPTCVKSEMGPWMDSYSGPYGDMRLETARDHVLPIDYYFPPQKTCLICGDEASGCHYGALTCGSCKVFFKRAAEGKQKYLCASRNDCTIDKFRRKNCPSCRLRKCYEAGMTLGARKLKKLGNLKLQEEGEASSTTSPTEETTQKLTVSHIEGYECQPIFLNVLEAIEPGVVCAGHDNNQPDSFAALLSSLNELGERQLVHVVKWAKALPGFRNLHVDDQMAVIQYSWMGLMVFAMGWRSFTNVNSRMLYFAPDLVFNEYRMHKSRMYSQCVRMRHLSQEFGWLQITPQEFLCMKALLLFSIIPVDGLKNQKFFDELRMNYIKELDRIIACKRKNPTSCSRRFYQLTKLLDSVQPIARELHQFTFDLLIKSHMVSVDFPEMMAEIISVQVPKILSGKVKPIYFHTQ

In the case of `O=S(=O)(Cc1ccccc1)Nc1ccc(-c2ccc3c(cnn3-c3ccc(F)cc3)c2)c(C(F)(F)F)c1`, the EC50 on Glucocorticoid receptor [1] was 0.02 µM. The Activity result in series [2] is on record as “Toxic”. The concentration at 1 h in series [3] turned out to be 12.1 µM. The bioavailability in series [4] is over 22%; in series [5], over 51%. In addition, the figures for the IC50 (at Glucocorticoid receptor [6]; in series [7]; at Androgen receptor) were 0.01 µM, 0.00126 µM and over 10 µM, respectively. The same compound registered an inhibition in vivo at 1 mg/kg with Mus musculus of 0%. Further, the figures for the half-life in series [8] and in [9] were 4 h and 3.3 h, respectively. This compound had a clearance in series [10] of 0.48 L/h/kg.
